From PMC5503262, “Solution conformations of Zika NS2B-NS3pro and its inhibition by natural products from edible plants” (PLoS ONE, 2017)
Several values for one entry are separate records, joined by “and”; a condition that tells them apart may be missing. Equal entries are not always repeated. Entries after “also recorded” stand apart in the source; their conditions may differ. Where two headings read alike, the source gives them in different places.

Legend:
[1] = target: T1, Zika NS2B-NS3pro (unlinked complex) (Zika virus, UniProt A0A024B7W1); assay: Inhibition of unlinked Zika NS2B-NS3pro, fluorogenic substrate Bz-nKRR-AMC; assay type: biochemical; conditions: for IC50 / Inhibition at 500 μM: Bz-nKRR-AMC 250 μM; for Inhibition at 500 μM: initial screening, compound 500 μM, protease 50 nM; for inhibitory activity (in words): compound concentration up to 500 μM
T1 construct: DNA fragments encoding the isolated NS3 (14–185) and NS2B (48–100) with the transmembrane regions removed; His-tag (cleaved yes); made in house; host or cells: Escherichia coli BL21 (DE3) Star
Experimental: Due to the urgency to fight ZIKV infection, we attempted to screen the inhibitors of Zika NS2B-NS3pro from natural products rich in edible plants. To better reflect the situation in vivo, here we selected the unlinked Zika NS2B-NS3pro complex for screening. However as most natural products are largely insoluble in aqueous buffers, we have assessed effects of DMSO and glycerol on the conformations (Fig 1E and 1F) as well as on catalytic parameters (Table 1). Consequently, 50 mM Tris buffer at pH 8.5 + 20% Glycerol was utilized as the screening buffer as it could dissolve all natural products in the present study but has no significant effect on the conformation of Zika NS2B-NS3pro (Fig 1F).
To allow comparison with the NS2B-NS3pro complexes of four Dengue serotypes (17), we selected three fluorophore-tagged substrates previously used (17): namely Bz-Nle-Lys-Arg-Arg-AMC, Boc-Gly-Arg-Arg-AMC and Boc-Gly-Lys-Arg-AMC (Bachem AG, Bubendorf), which were dissolved in dimethyl sulfoxide for preparing stock solutions (100 mM). All enzymatic experiments were performed in triplicate and data are presented as mean ± SD, while IC50, Km and Ki were obtained by fitting with GraphPad Prism 7.0 [61].
All natural products were purchased from Sigma-Aldrich, which are all HPLC purified. After optimization of buffer conditions, here, we selected 50 mM Tris-HCl buffer at pH 8.5 in the presence of 20% glycerol which could dissolve all natural products. Briefly, for the initial screening, the Zika protease at 50 nM was preincubated for 30 min with different compounds at final concentrations of 5 and 500 μM dissolved in 1 μl DMSO, followed by adding Bz-nKRR-AMC to 250 μM to initiate reaction. Only the compounds showing significant inhibitions at both concentrations were subjected to further determination of IC50 and Ki.
For Ki determination, the assay was performed with different final concentrations of the inhibitors and substrate. Briefly, the Zika protease at 50 nM was preincubated with the inhibitor at different concentrations for 30 min at 37°C. Subsequently, the reaction was initiated by addition of the corresponding concentration series of the substrate. All measurements were performed in triplicate and data are presented as mean ± SD. The Ki was obtained by fitting in the non-competitive inhibition mode with GraphPad Prism 7.0, with an equation: Vmaxinh = Vmax/(1+I/Ki), while I is the concentration of inhibitor [61].

Dengue-2 NS2B-NS3pro = target: Dengue-2 NS2B-NS3pro; set-up: method as in PMID 25564380; conditions: allosteric inhibition, previously characterized; cited from earlier work
linked Zika NS2B-NS3pro = conditions: linked enzyme, assay buffer pH 7; cited from earlier work
[2] = IC50, protease 50 nM preincubated 30 min at 37°C, 50 mM Tris-HCl pH 8.5 + 20% glycerol, mean ± SD, triplicate
[3] = Ki, non-competitive fit, protease 50 nM preincubated 30 min at 37°C, 50 mM Tris-HCl pH 8.5 + 20% glycerol, mean ± SD, triplicate
[4] = 50 mM Tris-HCl pH 8.5 + 20% glycerol
[5] = protease 50 nM preincubated 30 min at 37°C, 50 mM Tris-HCl pH 8.5 + 20% glycerol, mean ± SD, triplicate, read-out: IC50
[6] = non-competitive fit, protease 50 nM preincubated 30 min at 37°C, 50 mM Tris-HCl pH 8.5 + 20% glycerol, mean ± SD, triplicate, read-out: Ki

T1 sequence (A0A024B7W1 1420-1472): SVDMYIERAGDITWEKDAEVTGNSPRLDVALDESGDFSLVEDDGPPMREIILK
T1 sequence (A0A024B7W1 1516-1687): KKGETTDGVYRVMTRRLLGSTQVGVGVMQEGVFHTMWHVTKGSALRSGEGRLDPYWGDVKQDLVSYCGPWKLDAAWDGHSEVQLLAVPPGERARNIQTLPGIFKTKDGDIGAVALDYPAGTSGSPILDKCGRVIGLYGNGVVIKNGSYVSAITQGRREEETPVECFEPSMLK

SMILES | IC50 [1, 2] | Inhibition at 500 μM [1, 4] | IC50 [1, 5] | inhibitory activity (in words) [1] | Ki [1, 6] | further results
O=c1cc(-c2ccc(O)cc2)oc2cc(O)cc(O)c12 [Apigenin] | 56.3 ± 0.9 µM | Yes | 56.3 µM | – | – | Ki [1, 3]: 34 µM
Oc1cc(O)c2c(c1)O[C@H](c1ccc(O)c(O)c1)[C@@H](O)C2 [Catechin] | – | No | – | inactive | – | inhibitory activity (in words) ([1]; listed as Catechine): no inhibitory activity was detected
COc1cc(/C=C/C(=O)CC(=O)/C=C/c2ccc(O)c(OC)c2)ccc1O [Curcumin] | – | Yes | 3.45 µM and 3.5 µM | – | 2.61 µM and 2.6 µM | –
O=c1c(-c2ccc(O)cc2)coc2cc(O)ccc12 [Daidzein] | – | No | – | no inhibitory activity was detected; also recorded: inactive | – | –
COc1cc(-c2oc3cc(O)cc(O)c3c(=O)c2O)ccc1O [Isorhamnetin] | 15.5 µM | Yes | – | – | – | Ki [1, 3]: 6.22 µM and 6.2 µM
O=c1cc(-c2ccc(O)c(O)c2)oc2cc(O)cc(O)c12 [Luteolin] | – | Yes | 2.7 ± 0.3 µM | – | 1.4 ± 0.1 µM | –
O=c1c(O)c(-c2cc(O)c(O)c(O)c2)oc2cc(O)cc(O)c12 [Myricetin] | 1.26 µM | Yes | 1.3 ± 0.1 µM | – | 0.8 ± 0.1 µM | Ki (Dengue-2 NS2B-NS3pro): 4.7 µM; Ki ([1]; Ki, non-competitive mode, unlinked enzyme, pH 8.5): 0.77 µM; Ki (linked Zika NS2B-NS3pro): 8.9 µM
O=c1c(O)c(-c2ccc(O)c(O)c2)oc2cc(O)cc(O)c12 [Quercetin] | – | Yes | 2.42 µM and 2.4 µM | – | 1.12 µM and 1.1 µM | Ki (Dengue-2 NS2B-NS3pro): 20.7 µM
Oc1ccc(/C=C/c2cc(O)cc(O)c2)cc1 [Resveratrol] | – | No | – | no inhibitory effect was detected; also recorded: no detectable inhibitory activity | – | –
